Laboratory results as given in a melting point compilation (Tetko et al.; mined from patent text by program, amines drawn as free bases though some values may be those of a salt).

Point of comparison: CC(=O)C=CSc1ncc(Cl)cn1, melting point 89 °C. Against it:
- O=C1Nc2ccc([N+](=O)[O-])cc2C1c1ncnc2nn(C3CCCCC3)cc12 (configuration not stated) — higher, 301 to 304 °C
- CC(C)c1cc(C(C)C)c(C=CCC(=O)O)c(C(C)C)c1 — higher, 201 to 203 °C
- CC(C)C[C@H](NC(=O)OCC1CCCCC1)C(=O)N[C@@H](C(C)C)[C@H](O)c1c(-c2ccccc2)c1=O — higher, 148 to 149 °C
- COc1cc(C(O)c2ccc(C(=O)N(C(C)C)C3CCCCC3)cc2)cc(OC)c1OC (configuration not stated) — higher, 158 to 160 °C
- CCCn1nc(-c2ccc(O)cc2)c2cccc(-c3ccc(F)cc3)c21 — higher, 110 to 111 °C
- Cc1ccc(-c2cccc3cc(Cc4cccc(C(F)(F)F)c4)sc23)cc1C(=O)NCC(N)=O — higher, 143 to 144 °C
- CC1(C)CC(OC(=O)CCCCCNC(=O)OC2CC(C)(C)NC(C)(C)C2)CC(C)(C)N1 — lower, 59 to 62 °C
- Clc1cccc2c1C1(CO1)c1ccccc1C21CO1 (configuration not stated) — not separable, 85 to 92 °C
- C=CCOC(=O)Nc1ccc(C2=NNC(=O)CC2C)cc1 (configuration not stated) — higher, 206 to 207 °C
- CC(C)c1ccc(N(Cc2ccc(N(C)C)cc2)C(=O)C2CCSc3ccccc32)cc1 (configuration not stated) — higher, 118 °C
- CCCOC(=O)CCNCC(O)COc1ccccc1C#N (configuration not stated) — the same, 89 °C
- CC[C@@H]1O[C@](/C=C/C2CC2)(C(F)(F)F)c2c(ccc3c2OCO3)NC1=O (relative stereo) — higher, 188 to 190 °C
- CCOC(=O)c1nc2scc(C)n2c1C — higher, 141 to 142 °C
- CC(=O)OC1CSC(Sc2ccc(-c3ccc(C#N)cc3)cc2)C(OC(C)=O)C1OC(C)=O (configuration not stated) — higher, 150 °C
- CCOc1ccc(-c2ncc(C#N)c(Cl)n2)cc1 — higher, 191 to 192 °C
- CCCOCCSc1ccc(-c2ccc3c(c2)C=C(C(=O)Nc2ccc(CN(C)C4CCOCC4)cc2)CCS3(=O)=O)cc1 — higher, 198 to 200 °C
- NC(=O)CN1C(=O)Cc2cc(Cl)ccc21 — higher, 226 °C
- COc1ccc(CC(=O)Nc2ccc3sc(C)nc3c2Cl)cc1 — higher, 173 to 174 °C
- COP(=O)(Nc1ccc(N)cc1)OC — higher, 125 °C
- O=C(O)CCCCO/N=C(/c1cccnc1)c1cccc(C(F)(F)F)c1 — lower, 70.3 °C
- O=C(O)CCCC(=O)Nc1ccc(N2CCN(C3(c4ccc(-c5ccccc5)cc4)C(=O)NC(=O)NC3=O)CC2)cc1 — higher, 268 to 269 °C
- COc1ccc2c(c1)nnc1cc(OC)ccc12 — higher, 200 to 202 °C
- COC(=O)c1c(Cl)nc2cc3c(cc2c1CCl)OCCO3 — higher, 130 to 132 °C
- FC(F)(F)c1cccc(CSc2nnc(-c3ccc4ncc(-c5ccccn5)n4c3)o2)c1 — higher, 181 to 182 °C
- COc1ccc2c(c1)CCC1C2CCC2(C)C(NCCCCCCCCCCN)CCC12 (configuration not stated) — lower, 55.5 to 57.5 °C
- Cc1c(CC(=O)NCCO)cc(-c2ccc(S(C)(=O)=O)cc2)n1-c1ccc(F)cc1 — higher, 99 °C
- O=C(Nc1cccc(Br)c1)Oc1ccccc1 — not separable, 88 to 90 °C
- O=C1C=CC(O)(c2cc3ccccc3o2)C=C1 — higher, 106 to 108 °C
- CC(=O)Nc1c(C(=O)c2cccnc2)[nH]c2cc(Cl)ccc12 — higher, 213 to 214 °C
- Cn1cc2c(OCC3COC(Cn4ccnc4)(c4ccc(Cl)cc4Cl)O3)cc(-c3ccccc3)nc2n1 (configuration not stated) — higher, 227 to 229 °C
- Cc1cc(SCc2ccc(-c3ccc(C(F)(F)F)cc3)cc2)c2c(c1OCC(=O)O)CCC2 — higher, 177 °C
- CCC(C)(CC)c1nnc(N)s1 — higher, 138 to 140 °C
- O=C1NCC(C(F)(F)C(F)(F)C(F)(F)F)C(=O)N1 (configuration not stated) — higher, 223 °C
- O=C(NCCO)c1csc(C(=O)NCCO)n1 — higher, 155 to 158 °C
- CC(=O)N(C)c1nc(C(C)(C)C)nn1-c1c(Cl)cc(Cl)cc1Cl — higher, 93 to 94 °C
- CC(C)(C)OC(=O)Nc1ccc(C#Cc2ccccn2)cc1[N+](=O)[O-] — higher, 142 to 144 °C
- COc1ccc(C=C2c3ccccc3C(=NOCC(=O)N3CCC(CO[N+](=O)[O-])CC3)c3ccccc32)cc1O — higher, 143 to 145 °C
- CN(CCCCCCNC(=O)NCCSCc1csc(NC(=N)N)n1)CCN(Cc1ccc(F)cc1)c1ccccn1 — higher, 95 °C
- CC(C)Oc1ccc(OC(=O)c2ccc(C(=O)Oc3ccc(OC(C)C)cc3)cc2)cc1 — higher, 192 to 194 °C
- CC(C)(C)[Si](C)(C)Oc1ccc2[nH]nc(N3C(=O)c4ccccc4C3=O)c2c1 — higher, 225 to 228 °C
- N#Cc1cccc(N2CCc3cc(Cl)ccc32)c1 — higher, 120 to 121 °C
- COC(=O)c1cc(C(C)=O)c(C(F)(F)F)cc1NC(C)=O — lower, 66 to 69 °C
- COc1ccc(C)cc1NC(=O)Nc1ccc(N2CCN(C(=O)Nc3ccc(OCC(O)CO)cc3C)CC2)cc1 (configuration not stated) — higher, 148 to 150 °C
- Clc1cnc2ccc(Br)cc2n1 — higher, 145 °C
- CCOC(=O)/C=C/c1ccc(-c2ccc(OCc3ccccc3)c(C34CC5CC(CC(C5)C3)C4)c2)c(Cl)c1 — higher, 148 to 150 °C
- CCOCCOC(=O)Nc1c(C#N)cnn1-c1ccc(Cl)c(Cl)c1Cl — higher, 122 to 124 °C
- CC(=O)NC[C@H]1CN(c2ccc3c(c2)CSCC3)C(=O)O1 — higher, 139 to 140 °C
- Cc1noc(-c2nc(-c3c(F)cccc3F)nn2C)c1Cl — higher, 94 to 97 °C
- COc1cc(CN2CCN(C[C@@H](C)O)CC2)ccc1-c1nc2c(N[C@H]3[C@@H](C(N)=O)[C@@H]4C=C[C@H]3C4)c(Cl)cnc2[nH]1 — higher, 157 to 159 °C
- O=C(OC1c2nccnc2C(=O)N1c1ccc(Cl)cn1)N1CCNCC1 (configuration not stated) — higher, 205 °C
- CCCc1c(C(=O)C(C)C)c2ccc(C(=O)O)cc2n1Cc1ccccc1C#N — higher, 214 to 215 °C
- Cc1cc2c(O)cccc2[nH]1 — higher, 168 to 170 °C
- O=C(O)CCC(=NO)c1ccc(-c2ccc(C(F)(F)F)cc2)cc1 — higher, 134 to 136 °C
- O=C1c2ccccc2C(=O)N1OCc1cnoc1 — higher, 133 to 135 °C
- CC(=O)Nc1cccc2c1CN(c1ccc3c(ccn3C)c1)C2=O — higher, 239 to 243 °C
- Cc1nnc2n1-c1ccccc1C(c1ccc(Cl)cc1)=NC2NC(=O)Nc1ccccn1 (configuration not stated) — higher, 274 to 278 °C
- CCCOc1c(OC)cc(C=O)cc1SC — lower, 64 to 66 °C
- O=C(O)c1ccc(NCCCOc2cccc3ccccc23)cc1 — higher, 146 to 147 °C
- CC(=O)OC1CSC(Oc2cncc(-c3ccc(C#N)cc3C)c2)C(OC(C)=O)C1OC(C)=O (configuration not stated) — higher, 136 to 138 °C
- N#Cc1cc(Br)cc2ccc(O)cc12 — higher, 222 to 224 °C
- O=C(c1ccccc1)c1cc([N+](=O)[O-])ccc1-n1nc(CN2C(=O)c3ccccc3C2=O)cc1CN1C(=O)c2ccccc2C1=O — higher, 220 to 224 °C
- COc1cc(N(C(C)=O)C2CCCCC2)c2ccccc2c1OC(C)=O — higher, 137 to 139 °C
- COC(=O)c1ccccc1COc1ccc(CCCO)cc1 — lower, 50.5 to 52 °C
- CSc1cccc(Nc2nc(OCC3CCCCC3)c3[nH]cnc3n2)c1 — higher, 190 to 192 °C
- c1ccc2c(c1)NC1CCCc3onc-2c31 (configuration not stated) — higher, 152 to 154 °C
- COc1ccc(C(=O)C2=C(O)C(=O)N(c3nncs3)C2c2ccc(C(C)(C)C)cc2)cc1 (configuration not stated) — higher, 289 to 291 °C
- C[C@@H]1Cc2ccsc2[C@H](C)N1CCNC(=O)c1ccc(NS(=O)(=O)c2ccc(Cl)cc2)cc1 (relative stereo) — higher, 107 to 111 °C
- Nc1n[nH]cc1C(=O)NC/C=C\COc1cc(CN2CCCCC2)ccn1 — higher, 172 to 174 °C
- O=C(C=Cc1cccc([N+](=O)[O-])c1)N1CCc2c([nH]c3ccccc23)C1c1ccc2c(c1)CCO2 (configuration not stated) — higher, 174 to 176 °C
- Cc1nc2cc(OCCO)ccc2s1 — lower, 67 to 68 °C
- N#CN=C(NCc1ccccc1)Nc1cccnc1 — higher, 189 to 190 °C
- COc1cc(OC)c(NC(=O)CC(C#N)c2ccccc2)c(OC)c1 (configuration not stated) — higher, 157 to 160 °C
- N#Cc1nn(-c2c(Cl)cc(C(F)(F)F)cc2Cl)cc1C1(Cl)CC1C(F)F (configuration not stated) — higher, 124 to 125 °C
- COc1nc(Nc2ccc(F)cc2F)c(C(=O)Cl)cc1F — higher, 153 to 154 °C
- Cc1cc2c(cc1C(=O)O)CCC(CCN1CCCC1)=C2 — higher, 258 to 259 °C
- CCN(CC)c1ccc(C2(c3ccc(N(CC)CC)cc3N(CC)CC)OC(=O)c3c(Cl)c(Cl)c(Cl)c(Cl)c32)cc1 (configuration not stated) — higher, 196 to 197 °C
- COc1ccc(-c2cc(C(=O)Nc3ccc(CCN(C)Cc4ccc(OC)c(OC)c4)cc3)c3ccccc3n2)cc1 — higher, 114 °C
- CC(C)n1cnc2c(Cl)nc(N)nc21 — higher, 135 to 136 °C
- Nc1nc(N)nc(C23CCN(CC2)CC3)n1 — higher, > 245 °C
- COc1cc2c(cc1OC)CN(CCCOc1ccc(NC(=O)c3cccc4c(=O)c5ccccc5[nH]c34)cc1)CC2 — higher, 220 °C
- Cc1ccc(S(=O)(=O)NCCCN(C)S(=O)(=O)c2ccc(C)cc2)cc1 — higher, 93 °C
- Cc1cc2c(c(C)c1NC(=O)CC(C)(C)C)C(=O)C(C)(C)O2 — higher, 181 to 182 °C
- CNC(=O)c1cccnc1CC(=O)c1ccc(Cl)cc1 — higher, 162 to 163 °C
- CCN(CC)C(=CC(=O)OC)n1c(=O)n2nc(C(=O)OC)c(N(CC)CC)c2c2ccccc21 — higher, 178 °C
- CC#CN1N=C(c2ccc(F)cc2)c2cc(Cl)ccc2CS1(=O)=O — higher, 139 to 140 °C
- CS(=O)(=O)NC(=O)c1ccccc1Nc1ccc(CCCc2ccc(Cl)c(Cl)c2)cc1 — lower, 53 to 61 °C
- O=C(O)Cc1ccc(Oc2ccc(Cl)nn2)cc1 — higher, 124 to 127 °C
- O=C1CCn2c(Cc3ccc(Cl)cc3)nc3c(Cl)ccc1c32 — higher, 167 °C
- CC(CN1CC(=O)N(CN2CCN(C)CC2)C(=O)C1)N1CC(=O)N(CN2CCN(C)CC2)C(=O)C1 (configuration not stated) — higher, 93 to 96 °C
- O=C(c1cccs1)c1cnn2c(-c3cccc(Br)c3)ccnc12 — higher, 193 to 195 °C
- CCCCn1nc(C)c(CO)c1Cc1ccc(-c2ccccc2-c2nnn[nH]2)cc1 — higher, 120 to 126 °C
- COc1ccc(-c2nnn(Cc3ccc(Cl)cc3Cl)c2N)cc1 — higher, 156 to 159 °C
- COC(=O)C[C@H]1S[C@H](c2cccc(OC)c2OC)c2cc(Cl)ccc2N(CC(C)(C)C)C1=O — higher, 170 to 171 °C
- CCOC(=O)C1CCN(C(=O)COc2cc(-c3ccccc3)nc3ccccc23)CC1 — higher, 120 °C
- CC=CCn1c(C)c(C)c2cnnc(CCc3ccccc3)c21 — higher, 98 to 106 °C
- Cc1nc2c(O[C@@H]3c4ccccc4C[C@H]3O)cc(C(=O)O)cc2n1C (relative stereo) — higher, 306 °C
